In patent publication US12410153B2, “Compounds, compositions and methods” (Avalo Therapeutics, Inc., priority 2014, dated 2025):
Where two headings read alike, the source gives them in different places.

Test: Repeated once-daily oral dosing with food (Days 1-7) in healthy subjects, PK and PD
Assay type: in vivo, human
Conditions: for AUC(0-t) / Cmax / Vd/F / Tmax / AUC(0-inf) / half-life: both sexes, human, plasma, oral; for Cmax: read-out: Cmax, Mean (SD); for AUC(0-inf): read-out: AUCinf, Mean (SD)
Procedure: A randomized, double-blind, placebo-controlled, parallel-dose group in-patient study is conducted to investigate the pharmacodynamic (PD) effects of crystalline Form II of Compound (I) in healthy subjects.
The study is designed as a three-part, sequential study. The sequential nature of the study ensures that a range of doses are investigated first in a young, healthy population (Part 1) before proceeding to higher doses in the healthy population and the comparator populations (intermediate age and elderly) (Parts 2 and 3). For the purposes of this study, “young” refers to a subject who is 18 to 45 years of age, “intermediate age” refers to a subject who is 46 to 64 years of age, and “elderly” refers to a subject who is 65 years of age or older.
After a screening period of up to 21 days (Days −23 to −3), 16 healthy, young male and female subjects are randomly assigned to a dose group as shown in Table 9.
Each parallel dose group is balanced for gender (approximately equal number of males and females). The randomized subjects are domiciled from Day −1 through Day 8. On Day −1, the subjects receive placebo tablets in the fed state and undergo ambulatory blood pressure monitoring (ABPM) and safety assessments to establish time-matched baselines. On Days 1-7, the subjects receive the study drug in the fed state and undergo safety, pharmacokinetic (PK) and pharmacodynamics (PD) assessments. On Days 8-11, follow-up PK and safety assessments are performed.
Safety assessments include Clinician-Administered Dissociative States Scale (CADSS), Columbia-Suicide Severity Rating Scale (C-SSRS), concomitant medication, adverse event (AE) and vital sign assessments. In PK assessments, blood samples are taken and analyzed to determine PK parameters such as Cmax, Tmax, AUC0-24, and t1/2. PD assessments include ABPM, plasma brain-derived neurotrophic factor (BDNF) measurements, and Profile of Mood States (POMS) assessments.
After a screening period of up to 21 days (Days −23 to −3), 16 subjects (8 healthy, young male and female subjects, and 8 healthy, intermediate age male and female subjects) are randomly assigned to a dose group as shown in Table 10.
After a screening period of up to 21 days (Days −23 to −3), 16 subjects (8 healthy, young male and female subjects, and 8 healthy, elderly male and female subjects) are randomly assigned to a dose group as shown in Table 11.

[1] = 8 mg, young subjects, 8 mg, Day 7
[2] = 12 mg, intermediate age, 12 mg, Day 7

Structure (SMILES): Cc1ccc(COC(=O)N2CC[C@H](CNc3ncccn3)[C@H](F)C2)cc1 [Form II, 4-methylbenzyl (3S, 4R)-3-fluoro-4-[(pyrimidin-2-ylamino)methyl] piperidine-1-carboxylate]
- average 7-day plasma BDNF values compared to placebo (16 and 20 mg): trend for an increase
- apparent oral clearance lower in female vs male subjects (Day 7): approximately 15%
- average Cmax higher in intermediate age and elderly subgroups vs young (Day 7): approximately 30%
- t½ higher in female vs male subjects (Day 7): approximately 16%
- mean plasma concentrations higher in female vs male subjects (Day 7, 2 to 24 hours postdose): approximately 20%
- Cmax and AUC vs dose (Days 1 and 7, 8 to 20 mg): approximately dose-proportional
- average 24 hour and daytime SBP and DBP (all doses compared to placebo, maximal by Day 4): increased
- AUC(0-t) (8 mg, young subjects, 8 mg, Day 1, read-out: AUC0-24, Mean (SD)): 1500 ng·h/mL
- AUC(0-t) (8 mg, young subjects, 8 mg, Day 1, read-out: AUClast, Mean (SD)): 1490 ng·h/mL
- Cmax (8 mg, young subjects, 8 mg, Day 1): 179 ng/mL
- Vd/F (8 mg, young subjects, 8 mg, Day 1, read-out: Vz/F, Mean (SD)): 101 L
- Tmax (8 mg, young subjects, 8 mg, Day 1, read-out: tmax, Mean (SD)): 2.17 h
- Tmax (8 mg, young subjects, 8 mg, Day 1, read-out: tmax, Median): 2 h
- AUC(0-t) (8 mg, young subjects, 8 mg, Day 7, read-out: AUC0-24, Mean (SD)): 2400 ng·h/mL
- AUC(0-inf) [1]: 4110 ng·h/mL
- AUC(0-t) (8 mg, young subjects, 8 mg, Day 7, read-out: AUClast, Mean (SD)): 3770 ng·h/mL
- Cmax [1]: 224 ng/mL
- half-life (8 mg, young subjects, 8 mg, Day 7, read-out: t1/2, Mean (SD) (converted)): 17.2 h
- Tmax (8 mg, young subjects, 8 mg, Day 7, read-out: tmax, Mean (SD)): 2.75 h
- Tmax (8 mg, young subjects, 8 mg, Day 7, read-out: tmax, Median): 3 h
- half-life (12 mg, Day 7, read-out: average t½, range across age groups): 20 to 28 h
- AUC(0-t) (12 mg, elderly, 12 mg, Day 1, read-out: AUC0-24, Mean (SD)): 2130 ng·h/mL
- AUC(0-t) (12 mg, elderly, 12 mg, Day 1, read-out: AUClast, Mean (SD)): 2100 ng·h/mL
- Cmax (12 mg, elderly, 12 mg, Day 1): 229 ng/mL
- Vd/F (12 mg, elderly, 12 mg, Day 1, read-out: Vz/F, Mean (SD)): 164 L
- Tmax (12 mg, elderly, 12 mg, Day 1, read-out: tmax, Mean (SD)): 1.93 h
- Tmax (12 mg, elderly, 12 mg, Day 1, read-out: tmax, Median): 1.75 h
- AUC(0-t) (12 mg, elderly, 12 mg, Day 7, read-out: AUC0-24, Mean (SD)): 4520 ng·h/mL
- AUC(0-inf) (12 mg, elderly, 12 mg, Day 7): 10300 ng·h/mL
- AUC(0-t) (12 mg, elderly, 12 mg, Day 7, read-out: AUClast, Mean (SD)): 9140 ng·h/mL
- Cmax (12 mg, elderly, 12 mg, Day 7): 349 ng/mL
- Vd/F (12 mg, elderly, 12 mg, Day 7, read-out: Vss/F, Mean (SD)): 111 L
- half-life (12 mg, elderly, 12 mg, Day 7, read-out: t1/2, Mean (SD) (converted)): 28.3 h
- Tmax (12 mg, elderly, 12 mg, Day 7, read-out: tmax, Mean (SD)): 2.26 h
- Tmax (12 mg, elderly, 12 mg, Day 7, read-out: tmax, Median): 2 h
- AUC(0-t) (12 mg, intermediate age, 12 mg, Day 1, read-out: AUC0-24, Mean (SD)): 2000 ng·h/mL
- AUC(0-t) (12 mg, intermediate age, 12 mg, Day 1, read-out: AUClast, Mean (SD)): 1980 ng·h/mL
- Cmax (12 mg, intermediate age, 12 mg, Day 1): 257 ng/mL
- Vd/F (12 mg, intermediate age, 12 mg, Day 1, read-out: Vz/F, Mean (SD)): 201 L
- Tmax (12 mg, intermediate age, 12 mg, Day 1, read-out: tmax, Mean (SD)): 2.5 h
- Tmax (12 mg, intermediate age, 12 mg, Day 1, read-out: tmax, Median): 2.5 h
- AUC(0-t) (12 mg, intermediate age, 12 mg, Day 7, read-out: AUC0-24, Mean (SD)): 3840 ng·h/mL
- AUC(0-inf) [2]: 8100 ng·h/mL
- AUC(0-t) (12 mg, intermediate age, 12 mg, Day 7, read-out: AUClast, Mean (SD)): 7470 ng·h/mL
- Cmax [2]: 360 ng/mL
- Vd/F (12 mg, intermediate age, 12 mg, Day 7, read-out: Vss/F, Mean (SD)): 121 L
- half-life (12 mg, intermediate age, 12 mg, Day 7, read-out: t1/2, Mean (SD) (converted)): 26.1 h
- Tmax (12 mg, intermediate age, 12 mg, Day 7, read-out: tmax, Mean (SD)): 1.83 h
- Tmax (12 mg, intermediate age, 12 mg, Day 7, read-out: tmax, Median): 1.5 h
